One assay has as its target vcCNT (Vibrio cholerae, UniProt Q9KPL5). Put plainly: biochemical. Type of assay: binding. Particulars: for mAnisotropy: [pyrrolo-gemcitabine] 2.00 μM.
A further assay addresses T1, hCNT3 (Homo sapiens, UniProt Q9HAS3).
T1 sequence (Q9HAS3 1-691): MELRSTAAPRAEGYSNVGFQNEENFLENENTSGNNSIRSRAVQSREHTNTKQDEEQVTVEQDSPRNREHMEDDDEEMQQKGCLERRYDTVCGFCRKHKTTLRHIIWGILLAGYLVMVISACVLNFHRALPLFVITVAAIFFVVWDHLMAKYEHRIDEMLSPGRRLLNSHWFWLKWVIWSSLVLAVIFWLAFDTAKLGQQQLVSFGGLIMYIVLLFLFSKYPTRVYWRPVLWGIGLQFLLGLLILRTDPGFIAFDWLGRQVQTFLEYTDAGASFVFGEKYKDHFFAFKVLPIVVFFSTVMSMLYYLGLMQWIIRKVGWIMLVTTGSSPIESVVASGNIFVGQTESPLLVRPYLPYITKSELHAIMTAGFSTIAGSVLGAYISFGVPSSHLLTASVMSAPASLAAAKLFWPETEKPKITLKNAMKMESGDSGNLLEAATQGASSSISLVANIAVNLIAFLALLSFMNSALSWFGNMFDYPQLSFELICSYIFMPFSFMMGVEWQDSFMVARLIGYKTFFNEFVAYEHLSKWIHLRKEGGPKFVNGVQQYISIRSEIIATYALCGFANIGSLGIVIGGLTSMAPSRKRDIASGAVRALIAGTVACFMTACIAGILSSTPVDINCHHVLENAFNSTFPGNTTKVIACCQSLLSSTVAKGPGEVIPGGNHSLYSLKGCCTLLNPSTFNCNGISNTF
Put plainly: two-electrode voltage-clamp of Na+ currents / total charge in Xenopus oocytes expressing hCNT3. Type of assay: cell-based. The source says: To detect nucleoside transport by hCNTs, we turned to two-electrode voltage-clamp electrophysiological recording. Because hCNTs are Na^+-nucleoside symporters, one can measure the current generated by the Na^+ transport that is coupled with nucleoside transport. We injected Xenopus oocytes with mRNA coding for each of the hCNTs and measured inward Na^+ currents elicited by the addition of different nucleosides to the extracellular side.
(§1) The genes coding for the three hCNTs and vcCNT were cloned into a pGEM-HE vector. Plasmids were linearized using either SphI or NheI, and mRNA was transcribed using the mMESSAGE mMACHINE T7 Transcription Kit (Ambion, Grand Island, NY). Defolliculated Xenopus laevis oocytes were purchased from Ecocyte Bioscience (Austin, TX). Individual oocytes were injected with 40 ng of mRNA using a 10-μl microdispenser (Drummond Scientific, Broomall, PA) fitted with a tapered glass pipette tip and incubated at 17 °C for 4–5 days in ND96 buffer (96 mM NaCl, 2 mM KCl, 1 mM MgCl2, 1.8 mM CaCl2, and 5 mM HEPES pH 7.5) with 0.1% penicillin and streptomycin before recording.
The oocyte-recording chamber was gravity-perfused with ND96 buffer at a rate of 2 ml/min. Membrane currents were measured using an Oocyte Clamp (OC-725C; Warner Instruments, Hamden, CT). Individual oocytes were penetrated with two microelectrodes filled with 3 M KCl (0.5–1.0 MΩ). All electrophysiological experiments were conducted at room temperature. The OC-725C Oocyte Clamp was computer-interfaced via an Axon Digidata 1550 and controlled by Axoscope software (Molecular Devices, Sunnyvale, CA). The current signals were filtered at 20 Hz and sampled at intervals of 20 ms. The signals were filtered at 0.5 Hz by use of pCLAMP 10.4 software for data presentation. […] Cells were discarded if resting membrane potentials were unstable or more positive than −30 mV. Oocyte membrane potentials were clamped at −90 mV for holding potentials to measure transporter-generated currents. All data are shown as means ± SEM.
(Two-electrode voltage clamp is typically applied to oocytes expressing channels or transporters.)

In a further assay the target is hCNT1 (353V/424L) (Homo sapiens, UniProt O00337, L353V/V424L). Nature of the assay: two-electrode voltage-clamp total charge in Xenopus oocytes expressing hCNT1 (353V/424L). Type of assay: cell-based. Particulars: mean of Exp. 1-8.
Chain of hCNT1 (353V/424L) (O00337 whole entry L353V/V424L, the tested form may be a part): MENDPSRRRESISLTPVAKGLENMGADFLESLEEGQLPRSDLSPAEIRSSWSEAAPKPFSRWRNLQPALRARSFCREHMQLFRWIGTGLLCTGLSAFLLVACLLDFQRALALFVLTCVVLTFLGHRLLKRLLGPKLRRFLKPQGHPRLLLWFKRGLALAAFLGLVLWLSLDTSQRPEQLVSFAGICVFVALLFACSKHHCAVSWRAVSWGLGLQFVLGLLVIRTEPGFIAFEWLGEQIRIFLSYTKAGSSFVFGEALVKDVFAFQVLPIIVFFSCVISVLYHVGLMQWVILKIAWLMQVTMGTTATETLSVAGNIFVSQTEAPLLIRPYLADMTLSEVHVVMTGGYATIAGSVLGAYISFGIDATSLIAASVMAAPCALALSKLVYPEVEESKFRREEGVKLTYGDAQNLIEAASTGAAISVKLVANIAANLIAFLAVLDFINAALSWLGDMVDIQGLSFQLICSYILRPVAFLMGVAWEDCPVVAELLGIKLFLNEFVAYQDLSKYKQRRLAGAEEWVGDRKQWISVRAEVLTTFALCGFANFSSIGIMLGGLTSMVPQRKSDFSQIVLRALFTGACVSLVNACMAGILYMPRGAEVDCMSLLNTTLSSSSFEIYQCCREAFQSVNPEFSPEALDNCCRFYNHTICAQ
Source text: Figure 6. […] (A) Model of hCNT3 nucleo-pocket. […] (B) Model of hCNT1 nucleo-pocket. […] (C) Hypothetical alternating-access mechanism of vcCNT. A cartoon representation of the different conformational states along the transport cycle is depicted. The transport domain (including HP1, HP2, TM4b, and TM7b) and TM6 are shown as cylinders. […] The nucleo-pocket in the inward-occluded conformation (bottom right) is located between TM6 and TM4 and is marked with a green star. The inward-occluded conformation is derived from the crystal structures of vcCNT. All other conformations are purely hypothetical. The transition between inward- and outward-facing conformations has been proposed to be achieved by a rigid-body movement of the transport domain across TM6 ([Johnson et al., 2012]). Extracellular and intracellular gating likely involves slight rearrangements of HP2/TM4b and HP1/TM7b, respectively. […] See Figure 6—source data 1 for total charge source data. DOI: http://dx.doi.org/10.7554/eLife.03604.024 Figure 6—source data 1. Total charge data. Total charge transported (μC) was calculated as the area under the curve of the current trace after application of the indicated nucleoside to hCNT-expressing Xenopus oocytes. Each row represents a separate experiment done using a different oocyte. The ratios of the total charge transported for the nucleosides are shown in the last columns.
as §1
The oocyte-recording chamber was gravity-perfused with ND96 buffer at a rate of 2 ml/min. Membrane currents were measured using an Oocyte Clamp (OC-725C; Warner Instruments, Hamden, CT). Individual oocytes were penetrated with two microelectrodes filled with 3 M KCl (0.5–1.0 MΩ). All electrophysiological experiments were conducted at room temperature. The OC-725C Oocyte Clamp was computer-interfaced via an Axon Digidata 1550 and controlled by Axoscope software (Molecular Devices, Sunnyvale, CA). The current signals were filtered at 20 Hz and sampled at intervals of 20 ms.

“And” between values parts separate entries of the source, which are not always exact repeats. Equal entries are not always repeated.

Chain of vcCNT (Q9KPL5 entry or part of it): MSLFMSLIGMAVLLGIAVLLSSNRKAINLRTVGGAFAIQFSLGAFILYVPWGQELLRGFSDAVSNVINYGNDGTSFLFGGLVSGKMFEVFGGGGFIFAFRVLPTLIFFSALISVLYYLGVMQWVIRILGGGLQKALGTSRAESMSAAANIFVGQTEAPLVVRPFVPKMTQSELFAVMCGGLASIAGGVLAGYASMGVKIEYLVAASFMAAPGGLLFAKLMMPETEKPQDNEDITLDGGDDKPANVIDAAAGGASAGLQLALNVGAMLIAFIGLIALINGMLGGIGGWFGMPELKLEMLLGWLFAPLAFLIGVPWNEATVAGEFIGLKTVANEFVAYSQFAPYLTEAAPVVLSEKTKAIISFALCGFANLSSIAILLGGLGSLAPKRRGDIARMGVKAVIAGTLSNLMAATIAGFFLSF

With `Cc1cc2cn([C@@H]3O[C@H](CO)[C@@H](O)C3(F)F)c(=O)nc2[nH]1` [pyrrolo-gemcitabine], the mAnisotropy at vcCNT ([vcCNT] 0 μM) was 44.1 and 33.7 and 35.1; on vcCNT ([vcCNT] 1.0 μM), 45.4 and 36.3 and 43.5; on vcCNT ([vcCNT] 2.5 μM) it was 55.8 and 48.4 and 48.8; at vcCNT ([vcCNT] 5.0 μM), 72.7 and 68.7 and 59.5; on vcCNT ([vcCNT] 10 μM), 92.3 and 80.0 and 79.5; at vcCNT ([vcCNT] 25 μM), 127.1 and 118.0 and 110.9. In addition, the mAnisotropy on vcCNT ([vcCNT] 50 μM) is 153.7 and 139.6 and 136.3; on vcCNT ([vcCNT] 100 μM) it was 173.8 and 165.0; at vcCNT ([vcCNT] 200 μM) it was 187.8 and 174.6. Further, the Kd (usually a measure of binding affinity in units of concentration) on vcCNT (direct titration of fluorescent nucleoside with vcCNT, single-site model, mean ± SEM, read-out: KD) is 24 µM and 23.5 µM. In addition, the “decrease of KD relative to gemcitabine” value at vcCNT (vcCNT) is given as roughly 60 fold. Moreover, the “Total charge transported, Mean” value at hCNT3 (200 μM nucleoside, hCNT3-expressing Xenopus oocytes, mean of Exp. 1-14) is listed as 0.082 μC; on hCNT1 (353V/424L) (400 μM nucleoside, hCNT1 (353V/424L)-expressing Xenopus oocytes), 0.255 μC. The “Na+ current on addition of nucleoside” value at hCNT3 (hCNT3-expressing oocytes, 200 μM) is “almost no effect”. The “Qgem/Qpyr-gem, Mean” value at hCNT3 (ratio of total charge, 200 μM each, hCNT3, mean of Exp. 1-14) is given as 96.071. Also, at hCNT1 (353V/424L) (ratio of total charge, 400 μM each, hCNT1 (353V/424L)), the “Qpyr-gem/Qgem, Mean” value worked out at 0.385.
